Source: patent US10961238B2, “Modulators of hedgehog (Hh) signaling pathway” (E-THERAPEUTICS PLC, priority 2016, dated 2021)

Test system: C3H10T1/2 cells
Experiment: C3H assay: differentiation of C3H10T1/2 cells by mSHH, measurement of alkaline phosphatase
Type: cell-based, mouse
Details: C3H10T1/2 cells stimulated with mSHH for 72 hours; alkaline phosphatase activity; read-out: IC50 Ranges

IC50 [nM] | SMILES
10 to 100 | CC[C@@H](C)OC(=O)N1CC(S(=O)(=O)N2CCC(c3coc4cccnc34)CC2)C1 [Compound 371, [(2R)-butan-2-yl]3-(4-furo[3,2-b]pyridin-3-ylpiperidin-1-yl)sulfonylaze-tidine-1-carboxylate]
10 to 100 | CC1(C)COCN1C(=O)N1CC(S(=O)(=O)N2CCC(c3coc4cccnc34)CC2)C1 [Compound 372, (4,4-dimethyl-1,3-oxazolidin-3-yl)-[3-(4-furo[3,2-b]pyridin-3-ylpiperidin-1-yl)sulfonylaze-tidin-1-yl]methanone]

Same assay, conditions: Mus musculus, C3H 10T1/2; C3H10T1/2 cells stimulated with mSHH for 72 hours; alkaline phosphatase activity; read-out: IC50 Ranges

IC50 [nM] | SMILES
10 to 100 | Cc1c(F)cccc1NC(=O)N1CC(S(=O)(=O)N2CCC(c3coc4cccnc34)CC2)C1 [Compound 360, N-(3-fluoro-2-methylphenyl)-3-(4-furo[3,2-b]pyridin-3-ylpiperidin-1-yl)sulfonylaze-tidine-1-carboxamide]
10 to 100 | O=C(NC1(C(F)(F)F)CC1)[C@H]1C[C@@H](S(=O)(=O)N2CCC(c3coc4cccnc34)CC2)C1 [Compound 361, cis-3-(4-furo[3,2-b]pyridin-3-ylpiperidin-1-yl)sulfonyl-N-[1-(trifluoromethyl)cyclopropyl] cyclobutane-1-carboxamide]
10 to 100 | CC(C)(C)NC(=O)[C@H]1C[C@@H](S(=O)(=O)N2CCC(c3coc4cccnc34)CC2)C1 [Compound 362, cis-N-tert-butyl-3-(4-furo[3,2-b]pyridin-3-ylpiperidin-1-yl) sulfonylcyclobutane-1-carboxamide]
10 to 100 | Cc1c(F)cccc1NC(=O)N1CC(S(=O)(=O)N2CCC(c3c[nH]c4ncccc34)CC2)C1 [Compound 363, N-(3-fluoro-2-methylphenyl)-3-[4-(1H-pyrrolo[2,3-b]pyridin-3-yl)piperidin-1-yl]sulfonylaze-tidine-1-carboxamide]
10 to 100 | Cc1ccccc1NC(=O)N1CC(S(=O)(=O)N2CCC(c3c[nH]c4ncccc34)CC2)C1 [Compound 364, N-(2-methylphenyl)-3-[4-(1H-pyrrolo[2,3-b]pyridin-3-yl)piperidin-1-yl]sulfonylaze-tidine-1-carboxamide]
10 to 100 | Cc1ccc(F)cc1NC(=O)N1CC(S(=O)(=O)N2CCC(c3coc4cccnc34)CC2)C1 [Compound 365, N-(5-fluoro-2-methylphenyl)-3-(4-furo[3,2-b]pyridin-3-ylpiperidin-1-yl)sulfonylaze-tidine-1-carboxamide]
100 to 1000 | Cc1ccc(F)cc1NC(=O)N1CC(S(=O)(=O)N2CCC(c3ccc(C#N)cc3)CC2)C1 [Compound 366, 3-[4-(4-cyanophenyl)piperidin-1-yl]sulfonyl-N-(5-fluoro-2-methylphenyl) azetidine-1-carboxamide]
1000 to 10000 | Cc1ccc(F)cc1NC(=O)N1CC(S(=O)(=O)N2CCC(c3ccc(F)cc3)CC2)C1 [Compound 367, N-(5-fluoro-2-methylphenyl)-3-[4-(4-fluorophenyl)piperidin-1-yl]sulfonylaze-tidine-1-carboxamide]
1000 to 10000 | Cc1ccc2c(C3CCN(S(=O)(=O)C4CN(C(=O)Nc5cc(F)ccc5C)C4)CC3)c[nH]c2n1 [Compound 368, N-(5-fluoro-2-methylphenyl)-3-[4-(6-methyl-1H-pyrrolo[2,3-b]pyridin-3-yl)piperidin-1-yl]sulfonylaze-tidine-1-carboxamide]
100 to 1000 | Cc1ccccc1NC(=O)N1CC(S(=O)(=O)N2CCC(c3coc4cccnc34)CC2)C1 [Compound 369, 3-(4-furo[3,2-b]pyridin-3-ylpiperidin-1-yl)sulfonyl-N-(2-methylphenyl) azetidine-1-carboxamide]
10 to 100 | CC(C)(C)NC(=O)N1CC(S(=O)(=O)N2CCC(c3coc4cccnc34)CC2)C1 [Compound 370, N-tert-butyl-3-(4-furo[3,2-b]pyridin-3-ylpiperidin-1-yl)sulfonylaze-tidine-1-carboxamide]
10 to 100 | CC(C)[C@@H](CO)NC(=O)N1CC(S(=O)(=O)N2CCC(c3coc4cccnc34)CC2)C1 [Compound 373, 3-(4-furo[3,2-b]pyridin-3-ylpiperidin-1-yl)sulfonyl-N-[(2S)-1-hydroxy-3-methylbutan-2-yl]azetidine-1-carboxamide]
< 10 | C[C@@H]1CN(C(=O)N2CC(S(=O)(=O)N3CCC(c4coc5cccnc45)CC3)C2)C[C@H](C)O1 [Compound 374, [(2R,6S)-2,6-dimethylmorpholin-4-yl]-[3-(4-furo[3,2-b]pyridin-3-ylpiperidin-1-yl)sulfonylazetidin-1-yl]methanone]
100 to 1000 | CC(C)(C)C(=O)CN1CC(S(=O)(=O)N2CCC(c3ccc(F)cc3)CC2)C1 [Compound 375, 1-[3-[4-(4-fluorophenyl)piperidin-1-yl]sulfonylaze-tidin-1-yl]-3,3-dimethylbutan-2-one]
10 to 100 | CC(C)(C)C(=O)CN1CC(S(=O)(=O)N2CCC(c3coc4cccnc34)CC2)C1 [Compound 376, 1-[3-(4-furo[3,2-b]pyridin-3-ylpiperidin-1-yl)sulfonylazetidin-1-yl]-3,3-dimethylbutan-2-one]
10 to 100 | O=C(CC1CCOCC1)N1CC(S(=O)(=O)N2CCC(c3coc4cccnc34)CC2)C1 [Compound 377, 1-[3-[(4-furo[3,2-b]pyridin-3-yl-1-piperidyl)sulfonyl]azetidin-1-yl]-2-tetrahydropyran-4-yl-ethanone]

IC50 [nM] | SMILES
100 to 1000 | CC(C)(C)C(=O)CN1CC(S(=O)(=O)N2CCC(c3ccc(C#N)cc3)CC2)C1 [Compound 378, 4-[1-[1-(3,3-dimethyl-2-oxobutyl)azetidin-3-yl]sulfonylpiperidin-4-yl]benzonitrile]
10 to 100 | O=C(CC(O)(C(F)(F)F)C(F)(F)F)N1CC(S(=O)(=O)N2CCC(c3c[nH]c4cccnc34)CC2)C1 [Compound 379, 4,4,4-trifluoro-3-hydroxy-1-[3-[4-(1H-pyrrolo[3,2-b]pyridin-3-yl)piperidin-1-yl]sulfonylaze-tidin-1-yl]-3-(trifluoromethyl) butan-1-one]
< 10 | Cc1ccc2c(C3CCN(S(=O)(=O)C4CN(C(=O)OC5CCOCC5)C4)CC3)c[nH]c2n1 [Compound 380, oxan-4-yl 3-[4-(6-methyl-1H-pyrrolo[2,3-b]pyridin-3-yl)piperidin-1-yl]sulfonylaze-tidine-1-carboxylate]
< 10 | Cc1ccc2c(C3CCN(S(=O)(=O)C4CN(C(=O)N5C[C@@H](C)O[C@@H](C)C5)C4)CC3)c[nH]c2n1 [Compound 381, [cis-2,6-dimethylmorpholin-4-yl]-[3-[4-(6-methyl-1H-pyrrolo[2,3-b]pyridin-3-yl)piperidin-1-yl]sulfonylazetidin-1-yl]methanone]
10 to 100 | Cc1cccc(C)c1NC(=O)N1CC(S(=O)(=O)N2CCC(c3coc4cccnc34)CC2)C1 [Compound 382, N-(2,6-dimethylphenyl)-3-(4-furo[3,2-b]pyridin-3-ylpiperidin-1-yl)sulfonylaze-tidine-1-carboxamide]
10 to 100 | O=C(Nc1cccc(F)c1)N1CC(S(=O)(=O)N2CCC(c3coc4cccnc34)CC2)C1 [Compound 383, N-(3-fluorophenyl)-3-(4-furo[3,2-b]pyridin-3-ylpiperidin-1-yl)sulfonylaze-tidine-1-carboxamide]
10 to 100 | O=C(Nc1cc(F)ccc1Cl)N1CC(S(=O)(=O)N2CCC(c3coc4cccnc34)CC2)C1 [Compound 384, N-(2-chloro-5-fluorophenyl)-3-(4-furo[3,2-b]pyridin-3-ylpiperidin-1-yl)sulfonylaze-tidine-1-carboxamide]
10 to 100 | O=C(Nc1cc(F)ccc1Cl)N1CC(S(=O)(=O)N2CCC(c3c[nH]c4ncccc34)CC2)C1 [Compound 385, N-(2-chloro-5-fluorophenyl)-3-[4-(1H-pyrrolo[2,3-b]pyridin-3-yl)piperidin-1-yl]sulfonylaze-tidine-1-carboxamide]
10 to 100 | Cc1noc(C)c1CC(=O)N1CC(S(=O)(=O)N2CCC(c3ccc(Cl)cc3)CC2)C1 [Compound 386, 1-[3-[4-(4-chlorophenyl)piperidin-1-yl]sulfonylaze-tidin-1-yl]-2-(3,5-dimethyl-1,2-oxazol-4-yl)ethanone]
10 to 100 | Cc1cccc(F)c1NC(=O)N1CC(S(=O)(=O)N2CCC(c3c[nH]c4ncccc34)CC2)C1 [Compound 387, N-(2-fluoro-6-methylphenyl)-3-[4-(1H-pyrrolo[2,3-b]pyridin-3-yl)piperidin-1-yl]sulfonylaze-tidine-1-carboxamide]
10 to 100 | O=C(Nc1cccc(F)c1)N1CC(S(=O)(=O)N2CCC(c3c[nH]c4ncccc34)CC2)C1 [Compound 389, N-(3-fluorophenyl)-3-[4-(1H-pyrrolo[2,3-b]pyridin-3-yl)piperidin-1-yl]sulfonylaze-tidine-1-carboxamide]
10 to 100 | O=C(Nc1c(F)cccc1F)N1CC(S(=O)(=O)N2CCC(c3c[nH]c4ncccc34)CC2)C1 [Compound 390, N-(2,6-difluorophenyl)-3-[4-(1H-pyrrolo[2,3-b]pyridin-3-yl)piperidin-1-yl]sulfonylaze-tidine-1-carboxamide]
10 to 100 | Cc1cccc(C)c1NC(=O)N1CC(S(=O)(=O)N2CCC(c3c[nH]c4ncccc34)CC2)C1 [Compound 391, N-(2,6-dimethylphenyl)-3-[4-(1H-pyrrolo[2,3-b]pyridin-3-yl)piperidin-1-yl]sulfonylaze-tidine-1-carboxamide]
10 to 100 | Cc1cc(F)ccc1NC(=O)N1CC(S(=O)(=O)N2CCC(c3coc4cccnc34)CC2)C1 [Compound 392, N-(4-fluoro-2-methylphenyl)-3-(4-furo[3,2-b]pyridin-3-ylpiperidin-1-yl)sulfonylaze-tidine-1-carboxamide]
10 to 100 | C[C@@H]1CN(C(=O)N2CC(S(=O)(=O)N3CCC(c4ccc(Cl)cc4)CC3)C2)C[C@H](C)O1 [Compound 393, [3-[4-(4-chlorophenyl)piperidin-1-yl]sulfonylaze-tidin-1-yl]-[(2R,6S)-2,6-dimethylmorpholin-4-yl]methanone]
10 to 100 | Cc1cc(F)ccc1NC(=O)N1CC(S(=O)(=O)N2CCC(c3c[nH]c4ncccc34)CC2)C1 [Compound 394, N-(4-fluoro-2-methylphenyl)-3-[4-(1H-pyrrolo[2,3-b]pyridin-3-yl)piperidin-1-yl]sulfonylazet idine-1-carboxamide]
